According to ChEMBL document CHEMBL1201861, “Genomics of Drug Sensitity in Cancer screening data, Wellcome Trust Sanger Institute”:

Key:
Experiment in all cases: cells
COLO-792 = type: functional, cell-based, Homo sapiens; conditions: Homo sapiens, COLO-792
Description: SANGER: Inhibition of human COLO-792 cell growth in a cell viability assay.

COLO-829 = type: functional, cell-based, Homo sapiens; conditions: Homo sapiens, COLO-829
Description: SANGER: Inhibition of human COLO-829 cell growth in a cell viability assay.

DOHH-2 = type: functional, cell-based; conditions: Homo sapiens;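 also: growth inhibition of human DOHH-2 cells, read out with a cell viability assay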
Description: SANGER: Inhibition of human DOHH-2 cell growth in a cell viability assay.

DSH1 = type: functional, cell-based, Homo sapiens; conditions: Homo sapiens, DSH1;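 also: growth inhibition of human DSH1 cells, measured with a cell viability readout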
Description: SANGER: Inhibition of human DSH1 cell growth in a cell viability assay.

ES7 = type: functional, cell-based, Homo sapiens; conditions: Homo sapiens, ES7;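 also: growth inhibition of cultured human ES7 cells, read out as cell viability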
Description: SANGER: Inhibition of human ES7 cell growth in a cell viability assay.

EOL1 = type: functional, cell-based; conditions: Homo sapiens;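 also: growth inhibition of EoL-1 cells, read out by a cell viability assay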
Description: SANGER: Inhibition of human EoL-1-cell cell growth in a cell viability assay.

GI-1 = type: functional, cell-based, Homo sapiens; conditions: Homo sapiens, GI-1;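 also: growth inhibition of human GI-1 cells, measured with a cell viability readout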
Description: SANGER: Inhibition of human GI-1 cell growth in a cell viability assay.

HCC38 = type: functional, cell-based, Homo sapiens; conditions: Homo sapiens, HCC38;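 also: cell viability assay on the human HCC38 cell line, with IC50 marking the concentration that inhibits cell growth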
Description: SANGER: Inhibition of human HCC38 cell growth in a cell viability assay.

HCT-116 = type: functional, cell-based, Homo sapiens; conditions: Homo sapiens, HCT-116
Description: SANGER: Inhibition of human HCT-116 cell growth in a cell viability assay.

HGC-27 = type: functional, cell-based, Homo sapiens; conditions: Homo sapiens, HGC-27;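 also: growth inhibition of human HGC-27 cells, read out in a cell viability assay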
Description: SANGER: Inhibition of human HGC-27 cell growth in a cell viability assay.

HN = type: functional, cell-based, Homo sapiens; conditions: Homo sapiens, HN
Description: SANGER: Inhibition of human HN cell growth in a cell viability assay.

HO-1-N-1 = type: functional, cell-based, Homo sapiens; conditions: Homo sapiens, HO-1-N-1;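 also: growth inhibition of human HO-1-N-1 cells, read out with a cell viability assay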
Description: SANGER: Inhibition of human HO-1-N-1 cell growth in a cell viability assay.

HuTu80 = type: functional, cell-based, Homo sapiens, HUTU-80; conditions: Homo sapiens, HuTu80;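 also: growth inhibition of HuTu80 human cells, determined with a cell viability readout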
Description: SANGER: Inhibition of human HUTU-80 cell growth in a cell viability assay.

Huh-7 = type: functional, cell-based, Homo sapiens; conditions: Homo sapiens, Huh-7;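 also: HuH-7 cell growth inhibition, read out with a cell viability assay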
Description: SANGER: Inhibition of human HuH-7 cell growth in a cell viability assay.

K5 = type: functional, cell-based, Homo sapiens; conditions: Homo sapiens, K5
Description: SANGER: Inhibition of human K5 cell growth in a cell viability assay.

KINGS-1 = type: functional, cell-based, Homo sapiens; conditions: Homo sapiens, KINGS-1;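 also: cell viability assay measuring suppression of KINGS-1 cell growth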
Description: SANGER: Inhibition of human KINGS-1 cell growth in a cell viability assay.

KM-H2 = type: functional, cell-based; conditions: Homo sapiens;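 also: growth inhibition of KM-H2 cells, read out by a cell viability assay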
Description: SANGER: Inhibition of human KM-H2 cell growth in a cell viability assay.

KU-19-19 = type: functional, cell-based, Homo sapiens; conditions: Homo sapiens, KU-19-19
Description: SANGER: Inhibition of human KU-19-19 cell growth in a cell viability assay.

KYSE-410 = type: functional, cell-based, Homo sapiens; conditions: Homo sapiens, KYSE-410;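 also: growth inhibition of KYSE-410 cells, measured through a cell viability readout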
Description: SANGER: Inhibition of human KYSE-410 cell growth in a cell viability assay.

LB1047-RCC = type: functional, cell-based, Homo sapiens; conditions: Homo sapiens, LB1047-RCC;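 also: inhibition of cell growth, determined with a cell viability assay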
Description: SANGER: Inhibition of human LB1047-RCC cell growth in a cell viability assay.

MFE-280 = type: functional, cell-based, Homo sapiens; conditions: Homo sapiens, MFE-280;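 also: growth inhibition of MFE-280 cells, determined with a cell viability readout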
Description: SANGER: Inhibition of human MFE-280 cell growth in a cell viability assay.

MFM-223 = type: functional, cell-based, Homo sapiens; conditions: Homo sapiens, MFM-223
Description: SANGER: Inhibition of human MFM-223 cell growth in a cell viability assay.

MHH-ES-1 = type: functional, cell-based, Homo sapiens; conditions: Homo sapiens, MHH-ES-1;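 also: cell growth inhibition measured by a cell viability assay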
Description: SANGER: Inhibition of human MHH-ES-1 cell growth in a cell viability assay.

MKN-45 = type: functional, cell-based, Homo sapiens; conditions: Homo sapiens, MKN-45;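 also: growth inhibition of human MKN-45 cells, measured with a cell viability assay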
MLMA = type: functional, cell-based, Homo sapiens; conditions: Homo sapiens, MLMA;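 also: growth inhibition of MLMA cells (human), determined through a cell viability readout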
Description: SANGER: Inhibition of human MLMA cell growth in a cell viability assay.

NB10 = type: functional, cell-based, Homo sapiens; conditions: Homo sapiens, NB10;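 also: growth inhibition of NB10 cells, read out by a cell viability assay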
Description: SANGER: Inhibition of human NB10 cell growth in a cell viability assay.

NCI-H1650 = type: functional, cell-based, Homo sapiens; conditions: Homo sapiens, NCI-H1650;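 also: growth inhibition of human NCI-H1650 cells measured by a cell viability assay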
Description: SANGER: Inhibition of human NCI-H1650 cell growth in a cell viability assay.

NCI-H1792 = type: functional, cell-based, Homo sapiens; conditions: Homo sapiens, NCI-H1792;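 also: growth inhibition of human NCI-H1792 cells, read out as cell viability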
Description: SANGER: Inhibition of human NCI-H1792 cell growth in a cell viability assay.

NCI-H2347 = type: functional, cell-based, Homo sapiens; conditions: Homo sapiens, NCI-H2347;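 also: growth inhibition of the cell line, read out with a cell viability assay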
Description: SANGER: Inhibition of human NCI-H2347 cell growth in a cell viability assay.

NCI-H526 = type: functional, cell-based; conditions: Homo sapiens;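 also: growth inhibition of the human NCI-H526 cell line, measured by a cell viability assay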
Description: SANGER: Inhibition of human NCI-H526 cell growth in a cell viability assay.

NH-12 = type: functional, cell-based, Homo sapiens; conditions: Homo sapiens, NH-12;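 also: growth inhibition of NH-12 cells, read out with a cell viability assay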
Description: SANGER: Inhibition of human NH-12 cell growth in a cell viability assay.

OE19 = type: functional, cell-based, Homo sapiens; conditions: Homo sapiens, OE19;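 also: growth inhibition of OE19 cells, measured through a cell viability read-out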
Description: SANGER: Inhibition of human OE19 cell growth in a cell viability assay.

OMC-1 = type: functional, cell-based, Homo sapiens; conditions: Homo sapiens, OMC-1;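 also: growth inhibition of the OMC-1 cell line, measured by a cell viability assay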
Description: SANGER: Inhibition of human OMC-1 cell growth in a cell viability assay.

OVCAR-3 = type: functional, cell-based, Homo sapiens; conditions: Homo sapiens, OVCAR-3;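 also: growth inhibition of human OVCAR-3 cells, determined by a cell viability assay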
Description: SANGER: Inhibition of human OVCAR-3 cell growth in a cell viability assay.

RH-1 = type: functional, cell-based, Homo sapiens; conditions: Homo sapiens, RH-1;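 also: growth inhibition of human RH-1 cells, read out with a cell viability assay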
SK-MEL-30 = type: functional, cell-based; conditions: Homo sapiens;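 also: growth inhibition of SK-MEL-30 cells, determined with a cell viability assay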
Description: SANGER: Inhibition of human SK-MEL-30 cell growth in a cell viability assay.

SK-PN-DW = type: functional, cell-based; conditions: Homo sapiens;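 also: growth inhibition measured with a viability assay on these cells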
Description: SANGER: Inhibition of human SK-PN-DW cell growth in a cell viability assay.

SW756 = type: functional, cell-based, Homo sapiens; conditions: Homo sapiens, SW756;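 also: growth inhibition of human SW756 cells, read out with a cell viability assay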
Description: SANGER: Inhibition of human SW756 cell growth in a cell viability assay.

SW 954 = type: functional, cell-based, Homo sapiens; conditions: Homo sapiens, SW 954;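 also: growth inhibition of SW954 human cancer cells, read out as cell viability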
Description: SANGER: Inhibition of human SW954 cell growth in a cell viability assay.

T-24 = type: functional, cell-based, Homo sapiens; conditions: Homo sapiens, T-24;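 also: growth inhibition of T-24 cells, read out with a cell viability assay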
Description: SANGER: Inhibition of human T-24 cell growth in a cell viability assay.

CWR22R = type: functional, cell-based, Homo sapiens; conditions: Homo sapiens, 22Rv1;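 also: growth inhibition of 22Rv1 cells, read out with a cell viability assay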
Description: SANGER: Inhibition of human 22RV1 cell growth in a cell viability assay.

A204 = type: functional, cell-based, Homo sapiens; conditions: Homo sapiens, A204;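 also: growth inhibition of human A204 cells, read out with a cell viability assay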
Description: SANGER: Inhibition of human A204 cell growth in a cell viability assay.

ABC-1 = type: functional, cell-based, Homo sapiens; conditions: Homo sapiens, ABC-1;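 also: growth inhibition of human ABC-1 cells, read out by a cell viability assay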
Description: SANGER: Inhibition of human ABC-1 cell growth in a cell viability assay.

ACN = type: functional, cell-based, Homo sapiens; conditions: Homo sapiens, ACN;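 also: growth inhibition of the human ACN cell line, read out via cell viability testing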
Description: SANGER: Inhibition of human ACN cell growth in a cell viability assay.

BB49-HNC = type: functional, cell-based, Homo sapiens; conditions: Homo sapiens, BB49-HNC;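 also: cell viability assay read-out, reported as inhibition of BB49-HNC cell growth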
Description: SANGER: Inhibition of human BB49-HNC cell growth in a cell viability assay.

BV-173 = type: functional, cell-based; conditions: Homo sapiens
Description: SANGER: Inhibition of human BV-173 cell growth in a cell viability assay.

TYK-nu = type: functional, cell-based, Homo sapiens; conditions: Homo sapiens, TYK-nu;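 also: growth inhibition of human TYK-nu cells, read out by a cell viability assay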
Description: SANGER: Inhibition of human TYK-nu cell growth in a cell viability assay.

U-87 MG = type: functional, cell-based, U-87MG ATCC; conditions: Homo sapiens;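 also: growth inhibition of the cells measured with a viability assay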
Description: SANGER: Inhibition of human U-87-MG cell growth in a cell viability assay.

YAPC = type: functional, cell-based, Homo sapiens; conditions: Homo sapiens, YAPC;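 also: growth inhibition of YAPC cells, measured with a cell viability assay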
Description: SANGER: Inhibition of human YAPC cell growth in a cell viability assay.

CGTH-W-1 = type: functional, cell-based, Homo sapiens; conditions: Homo sapiens, CGTH-W-1;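 also: growth inhibition of human CGTH-W-1 cells measured by cell viability assay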
Description: SANGER: Inhibition of human CGTH-W-1 cell growth in a cell viability assay.

COLO-678 = type: functional, cell-based, Homo sapiens; conditions: Homo sapiens, COLO-678
Description: SANGER: Inhibition of human COLO-678 cell growth in a cell viability assay.

Measured: IC50

C=CCc1cccc(/C=N/NC(=O)CN2CCN(Cc3ccccc3)CC2)c1O [PAC-1]
1790 nM: ACN
1180 nM: KYSE-410
987 nM: NH-12
> 2560 nM: all other assays above

Cc1ccc(Nc2nccc(N(C)c3ccc4c(C)n(C)nc4c3)n2)cc1S(N)(=O)=O [PAZOPANIB]
3530 nM: LB1047-RCC
< 31.2 nM: EOL1
7690 nM: Huh-7
40 nM: CGTH-W-1
6200 nM: HGC-27
1280 nM: HuTu80
109 nM: A204
2230 nM: GI-1
> 8000 nM: all other assays above

CN(c1ncccc1CNc1nc(Nc2ccc3c(c2)CC(=O)N3)ncc1C(F)(F)F)S(C)(=O)=O [PF-00562271]
2000 nM: SW 954
1800 nM: MHH-ES-1
2250 nM: ABC-1
1620 nM: CGTH-W-1
1450 nM: HuTu80
752 nM: COLO-829
2350 nM: ACN
> 2560 nM: all other assays above
